Results reported in ChEMBL document CHEMBL3526141, “Characterization of human liver enzymes involved in the biotransformation of boceprevir, a hepatitis C virus protease inhibitor” (Drug Metab Dispos, 2011).

Tests used:
Liver cytosol [1] = test: (§1) Drug metabolism in human liver cytosol at 20 uM assessed as (1R,2S,5S)-N-((2S,3R)-4-amino-1-cyclobutyl-3-hydroxy-4-oxobutan-2-yl)-3-((S)-2-(3-tert-butylureido)-3,3-dimethylbutanoyl)-6,6-dimethyl-3-azabicyclo[3.1.0]hexane-2-carboxamide formation at 20 uM after 60 mins in presence of AKR inhibitor ibuprofen by LC-MS/MS/FSA method; type: ADME; conditions: 1 h
[2] = Drug excretion in human feces; type: ADME; set-up: dosed compound name [14C]boceprevir
[3] = Drug excretion in human urine; type: ADME; set-up: dosed compound name [14C]boceprevir
[4] = as §1, with “S9 fraction” for “cytosol”, “formation” for “formation at 20 uM after 60 mins”, “mefenamic acid” for “AKR inhibitor ibuprofen”; type: ADME, subcellular; conditions: s9, 20 µM
[5] = Drug metabolism in human liver S9 fraction at 20 uM assessed as (1R,2S,5S)-N-((2S,3R)-4-amino-1-cyclobutyl-3-hydroxy-4-oxobutan-2-yl)-3-((S)-2-(3-tert-butylureido)-3,3-dimethylbutanoyl)-6,6-dimethyl-3-azabicyclo[3.1.0]hexane-2-carboxamide formation in presence of menadione by LC-MS/MS/FSA method; type: ADME, subcellular; conditions: s9, 20 µM
[6] = target: T1, Aldo-keto reductase family 1 member C4 (Homo sapiens, UniProt P17516); test: Activity of human recombinant AKR1C4 expressed in HEK293 cells assessed as (1R,2S,5S)-N-((2S,3R)-4-amino-1-cyclobutyl-3-hydroxy-4-oxobutan-2-yl)-3-((S)-2-(3-tert-butylureido)-3,3-dimethylbutanoyl)-6,6-dimethyl-3-azabicyclo[3.1.0]hexane-2-carboxamide formation per mg protein after 120 mins in presence of NADPH by LC-MS/MS/FSA method; type: ADME, cell-based; conditions: hek293, 2 h
T1 sequence (P17516 whole entry): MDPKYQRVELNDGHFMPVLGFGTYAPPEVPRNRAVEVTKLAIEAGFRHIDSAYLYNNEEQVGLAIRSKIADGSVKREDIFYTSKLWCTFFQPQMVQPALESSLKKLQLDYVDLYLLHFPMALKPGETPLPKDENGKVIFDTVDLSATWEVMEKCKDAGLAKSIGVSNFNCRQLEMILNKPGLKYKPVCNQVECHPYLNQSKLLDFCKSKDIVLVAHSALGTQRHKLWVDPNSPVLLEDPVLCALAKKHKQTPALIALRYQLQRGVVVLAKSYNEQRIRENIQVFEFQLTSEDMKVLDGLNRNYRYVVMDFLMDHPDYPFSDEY

[7] = target: T2, Aldo-keto reductase family 1 member C2 (Homo sapiens, UniProt P52895); test: Activity of human recombinant AKR1C2 expressed in HEK293 cells assessed as (1R,2S,5S)-N-((2R,3R)-4-amino-1-cyclobutyl-3-hydroxy-4-oxobutan-2-yl)-3-((S)-2-(3-tert-butylureido)-3,3-dimethylbutanoyl)-6,6-dimethyl-3-azabicyclo[3.1.0]hexane-2-carboxamide formation at 20 uM after 120 mins in presence of NADPH by LC-MS/MS/FSA method; type: ADME, cell-based; conditions: hek293, 2 h
T2 sequence (P52895 whole entry): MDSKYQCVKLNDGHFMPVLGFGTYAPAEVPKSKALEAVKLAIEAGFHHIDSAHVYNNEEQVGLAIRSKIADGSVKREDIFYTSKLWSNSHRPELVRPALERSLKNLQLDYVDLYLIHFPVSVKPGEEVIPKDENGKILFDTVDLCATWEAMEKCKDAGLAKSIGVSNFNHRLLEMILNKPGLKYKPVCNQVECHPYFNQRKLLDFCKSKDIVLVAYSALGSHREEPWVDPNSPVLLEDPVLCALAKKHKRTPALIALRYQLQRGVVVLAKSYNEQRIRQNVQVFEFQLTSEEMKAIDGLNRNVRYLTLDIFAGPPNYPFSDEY

Cytochrome P450 2J2 = target: T3, Cytochrome P450 2J2 (Homo sapiens, UniProt P51589); test: Drug metabolism assessed as human CYP2J2-mediated compound formation from 5 to 20 uM [14C]boceprevir after 120 mins by LC-MS/FSA method relative to total [14C]boceprevir; type: ADME; conditions: recombinant enzyme, 2 h
T3 sequence (P51589 whole entry): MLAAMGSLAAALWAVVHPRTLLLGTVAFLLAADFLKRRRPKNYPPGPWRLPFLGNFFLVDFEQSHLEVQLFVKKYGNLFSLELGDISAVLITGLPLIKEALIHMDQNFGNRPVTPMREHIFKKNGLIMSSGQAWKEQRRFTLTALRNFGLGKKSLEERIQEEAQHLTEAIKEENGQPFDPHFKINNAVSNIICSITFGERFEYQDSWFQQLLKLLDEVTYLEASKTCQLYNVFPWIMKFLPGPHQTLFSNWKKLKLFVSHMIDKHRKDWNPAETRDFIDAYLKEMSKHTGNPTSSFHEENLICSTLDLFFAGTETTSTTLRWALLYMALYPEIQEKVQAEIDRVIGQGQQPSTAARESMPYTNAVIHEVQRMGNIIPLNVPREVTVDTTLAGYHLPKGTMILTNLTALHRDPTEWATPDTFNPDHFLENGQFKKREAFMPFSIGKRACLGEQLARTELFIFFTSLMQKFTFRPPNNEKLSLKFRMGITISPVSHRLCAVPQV

Cytochrome P450 4F12 = target: T4, Cytochrome P450 4F12 (Homo sapiens, UniProt Q9HCS2); test: Drug metabolism assessed as human CYP4F12-mediated compound formation from 5 to 20 uM [14C]boceprevir after 120 mins by LC-MS/FSA method relative to total [14C]boceprevir; type: ADME; conditions: recombinant enzyme, 2 h
T4 sequence (Q9HCS2 whole entry): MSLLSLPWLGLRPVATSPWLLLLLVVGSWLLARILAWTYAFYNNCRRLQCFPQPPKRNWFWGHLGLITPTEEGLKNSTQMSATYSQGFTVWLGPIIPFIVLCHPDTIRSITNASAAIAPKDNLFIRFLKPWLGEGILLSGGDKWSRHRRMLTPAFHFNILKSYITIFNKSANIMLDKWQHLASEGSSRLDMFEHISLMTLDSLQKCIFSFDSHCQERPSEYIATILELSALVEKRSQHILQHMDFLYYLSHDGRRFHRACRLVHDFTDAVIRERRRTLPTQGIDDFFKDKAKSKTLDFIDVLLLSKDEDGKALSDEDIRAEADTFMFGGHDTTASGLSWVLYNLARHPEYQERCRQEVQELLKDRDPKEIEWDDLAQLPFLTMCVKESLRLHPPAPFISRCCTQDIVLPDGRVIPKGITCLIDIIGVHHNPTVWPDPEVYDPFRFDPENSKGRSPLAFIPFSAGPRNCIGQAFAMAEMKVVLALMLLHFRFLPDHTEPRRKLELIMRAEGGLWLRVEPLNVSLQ

Liver cytosol [8] = test: Drug metabolism in human liver cytosol assessed as (1R,2S,5S)-N-((2R,3R)-4-amino-1-cyclobutyl-3-hydroxy-4-oxobutan-2-yl)-3-((S)-2-(3-tert-butylureido)-3,3-dimethylbutanoyl)-6,6-dimethyl-3-azabicyclo[3.1.0]hexane-2-carboxamide formation after 60 mins by LC-MS/MS/FSA method; type: ADME, tissue-based; conditions: 1 h
Liver cytosol [9] = test: Ratio of Vmax to Km for drug metabolism in human liver cytosol assessed as (1R,2S,5S)-N-((2R,3R)-4-amino-1-cyclobutyl-3-hydroxy-4-oxobutan-2-yl)-3-((S)-2-(3-tert-butylureido)-3,3-dimethylbutanoyl)-6,6-dimethyl-3-azabicyclo[3.1.0]hexane-2-carboxamide formation per mg protein after 60 mins by LC-MS/MS/FSA method; type: ADME; conditions: 1 h
Cytochrome P450 3A4 = Cytochrome P450 3A4 (Homo sapiens, UniProt P08684); test: Drug metabolism assessed as human CYP3A4-mediated compound formation from 5 uM [14C]boceprevir after 120 mins by LC-MS/FSA method relative to total [14C]boceprevir; type: ADME; conditions: recombinant enzyme, 2 h, BLD = below limit of detection
Cytochrome P450 3A4, sequence (P08684 whole entry): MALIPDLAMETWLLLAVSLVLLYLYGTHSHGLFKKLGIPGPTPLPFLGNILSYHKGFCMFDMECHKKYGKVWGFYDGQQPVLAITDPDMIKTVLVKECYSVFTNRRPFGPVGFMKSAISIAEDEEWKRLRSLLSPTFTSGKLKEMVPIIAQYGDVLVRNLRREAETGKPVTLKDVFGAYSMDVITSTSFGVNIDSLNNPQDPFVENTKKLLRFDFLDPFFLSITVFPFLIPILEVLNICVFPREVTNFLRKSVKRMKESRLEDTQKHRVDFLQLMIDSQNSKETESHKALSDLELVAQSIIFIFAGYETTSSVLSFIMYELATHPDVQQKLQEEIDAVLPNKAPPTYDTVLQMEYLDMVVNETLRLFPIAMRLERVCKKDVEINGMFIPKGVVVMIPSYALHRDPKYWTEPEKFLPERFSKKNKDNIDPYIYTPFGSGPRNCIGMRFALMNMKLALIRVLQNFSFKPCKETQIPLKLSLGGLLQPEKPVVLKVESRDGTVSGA

Cytochrome P450 3A5 = Cytochrome P450 3A5 (Homo sapiens, UniProt P20815); test: Drug metabolism assessed as human CYP3A5-mediated compound formation from 5 uM [14C]boceprevir after 120 mins by LC-MS/FSA method relative to total [14C]boceprevir; type: ADME; conditions: recombinant enzyme, 2 h
Cytochrome P450 3A5, sequence (P20815 whole entry): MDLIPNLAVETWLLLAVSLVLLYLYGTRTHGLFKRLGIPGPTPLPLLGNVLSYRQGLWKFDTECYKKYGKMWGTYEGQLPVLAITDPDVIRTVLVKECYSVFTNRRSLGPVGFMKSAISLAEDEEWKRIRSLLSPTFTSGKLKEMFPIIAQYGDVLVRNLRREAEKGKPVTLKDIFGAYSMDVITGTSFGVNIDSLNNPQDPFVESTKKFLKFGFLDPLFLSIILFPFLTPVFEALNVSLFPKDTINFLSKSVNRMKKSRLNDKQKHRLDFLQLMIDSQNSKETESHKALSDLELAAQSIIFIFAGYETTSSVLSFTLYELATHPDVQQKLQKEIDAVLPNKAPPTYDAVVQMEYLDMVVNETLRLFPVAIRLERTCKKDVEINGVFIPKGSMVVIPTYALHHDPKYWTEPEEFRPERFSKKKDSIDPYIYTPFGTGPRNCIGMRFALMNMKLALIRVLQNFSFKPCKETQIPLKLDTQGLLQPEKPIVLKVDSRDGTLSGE

| Compound recovery (Liver cytosol [1]) | Radiolabel recovery [2] [%] | Radiolabel recovery [3] [%] | Compound recovery [4] | Compound recovery [5] | Compound recovery [6] | Compound recovery [7] | Compound recovery (Cytochrome P450 2J2) | Compound recovery (Cytochrome P450 4F12) | Km (Liver cytosol [8]) [µM] | Vmax/Km (Liver cytosol [9]) [µL/min] | Compound recovery (Cytochrome P450 3A4) | Compound recovery (Cytochrome P450 3A5) [%] | SMILES |
| --- | --- | --- | --- | --- | --- | --- | --- | --- | --- | --- | --- | --- | --- |
| metabolite_not_detected | 79 | 9.3 | metabolite_not_detected | metabolite_not_detected | metabolite_not_detected | metabolite_detected | metabolite_not_detected | metabolite_not_detected |  |  |  |  | CC(C)(C)NC(=O)N[C@H](C(=O)N1C[C@H]2[C@@H]([C@H]1C(=O)NC(CC1CCC1)C(=O)C(N)=O)C2(C)C)C(C)(C)C (stereo partly drawn) [BOCEPREVIR] |
|  |  |  |  |  |  |  |  |  | 27.4 | 30.9 | BLD | 2.19 | CC(C)(C)NC(=O)N[C@H](C(=O)N1C[C@H]2[C@@H]([C@H]1C(=O)N[C@H](CC1CCC1)C(=O)C(N)=O)C2(C)C)C(C)(C)C |
